Measured values taken from PMC10006169, “A phase I trial of LXS196, a protein kinase C (PKC) inhibitor, for metastatic uveal melanoma” (British Journal of Cancer, 2023).
Where two headings read alike, the source gives them in different places.

Experiment: Plasma pharmacokinetics (LC-MS/MS)
Assay type: in vivo, human
Conditions: human, plasma, oral; for Tmax: read-out: Tmax, Median (Min, max)
Protocol: In the dose escalation part of the study, PK samples were collected at various pre- and post-dose time points on C1D1, D2, D3, D15 and D16. Drug concentrations were assessed using a validated liquid chromatography-tandem mass spectrometry assay.

CC1(N)CCN(c2cccnc2NC(=O)c2nc(-c3ncccc3C(F)(F)F)cnc2N)CC1 [LXS196]
AUC(0-t) (300 mg, C1D1, 300 mg BID, n=17, read-out: AUC0-t, Geo-mean): 18700 ng·h/mL
AUC(0-t) (300 mg, C1D1, 300 mg BID, n=17, read-out: AUC0-t, Mean (SD)): 20500 ng·h/mL
AUC(0-t) (300 mg, C1D1, 300 mg BID, n=17, read-out: AUC0-t, Median (Min, max)): 17000 ng·h/mL
Cmax (300 mg, C1D1, 300 mg BID, n=17, read-out: Cmax, Geo-mean): 3850 ng/mL
Cmax (300 mg, C1D1, 300 mg BID, n=17, read-out: Cmax, Mean (SD)): 4100 ng/mL
Cmax (300 mg, C1D1, 300 mg BID, n=17, read-out: Cmax, Median (Min, max)): 4210 ng/mL
Tmax (300 mg, C1D1, 300 mg BID, n=17): 1 h
AUC(0-t) (300 mg, C1D1, 300 mg QD, n=15, read-out: AUC0-t, Geo-mean): 34000 ng·h/mL
AUC(0-t) (300 mg, C1D1, 300 mg QD, n=15, read-out: AUC0-t, Mean (SD)): 40200 ng·h/mL
AUC(0-t) (300 mg, C1D1, 300 mg QD, n=15, read-out: AUC0-t, Median (Min, max)): 34400 ng·h/mL
AUC(0-inf) (300 mg, C1D1, 300 mg QD, n=15, read-out: AUCinf, Geo-mean): 42100 ng·h/mL
AUC(0-inf) (300 mg, C1D1, 300 mg QD, n=15, read-out: AUCinf, Mean (SD)): 51300 ng·h/mL
AUC(0-inf) (300 mg, C1D1, 300 mg QD, n=15, read-out: AUCinf, Median (Min, max)): 43100 ng·h/mL
Cmax (300 mg, C1D1, 300 mg QD, n=15, read-out: Cmax, Geo-mean): 4940 ng/mL
Cmax (300 mg, C1D1, 300 mg QD, n=15, read-out: Cmax, Mean (SD)): 5580 ng/mL
Cmax (300 mg, C1D1, 300 mg QD, n=15, read-out: Cmax, Median (Min, max)): 5370 ng/mL
half-life (300 mg, C1D1, 300 mg QD, n=15, read-out: T1/2, Geo-mean (converted)): 10.7 h
half-life (300 mg, C1D1, 300 mg QD, n=15, read-out: T1/2, Mean (SD) (converted)): 10.8 h
half-life (300 mg, C1D1, 300 mg QD, n=15, read-out: T1/2, Median (Min, max) (converted)): 11.1 h
Tmax (300 mg, C1D1, 300 mg QD, n=15): 1 h
AUC(0-t) (300 mg, C1D15, 300 mg BID, n=12, read-out: AUC0-t, Geo-mean): 18300 ng·h/mL
AUC(0-t) (300 mg, C1D15, 300 mg BID, n=12, read-out: AUC0-t, Mean (SD)): 19100 ng·h/mL
AUC(0-t) (300 mg, C1D15, 300 mg BID, n=12, read-out: AUC0-t, Median (Min, max)): 17400 ng·h/mL
Cmax (300 mg, C1D15, 300 mg BID, n=17, read-out: Cmax, Geo-mean): 2800 ng/mL
Cmax (300 mg, C1D15, 300 mg BID, n=17, read-out: Cmax, Mean (SD)): 2860 ng/mL
Cmax (300 mg, C1D15, 300 mg BID, n=17, read-out: Cmax, Median (Min, max)): 2880 ng/mL
Tmax (300 mg, C1D15, 300 mg BID, n=17): 0.567 h
AUC(0-t) (300 mg, C1D15, 300 mg QD, n=13, read-out: AUC0-t, Geo-mean): 26500 ng·h/mL
AUC(0-t) (300 mg, C1D15, 300 mg QD, n=13, read-out: AUC0-t, Mean (SD)): 30500 ng·h/mL
AUC(0-t) (300 mg, C1D15, 300 mg QD, n=13, read-out: AUC0-t, Median (Min, max)): 27900 ng·h/mL
Cmax (300 mg, C1D15, 300 mg QD, n=14, read-out: Cmax, Geo-mean): 3500 ng/mL
Cmax (300 mg, C1D15, 300 mg QD, n=14, read-out: Cmax, Mean (SD)): 3860 ng/mL
Cmax (300 mg, C1D15, 300 mg QD, n=14, read-out: Cmax, Median (Min, max)): 3310 ng/mL
concentration at 15 day (300 mg, C1D15, 300 mg QD, n=14, read-out: Cmin, Median (Min, max)): 326 ng/mL
Tmax (300 mg, C1D15, 300 mg QD, n=14): 1 h
AUC(0-t) (400 mg, C1D1, 400 mg BID, n=5, read-out: AUC0-t, Geo-mean): 16800 ng·h/mL
AUC(0-t) (400 mg, C1D1, 400 mg BID, n=5, read-out: AUC0-t, Mean (SD)): 18100 ng·h/mL
AUC(0-t) (400 mg, C1D1, 400 mg BID, n=5, read-out: AUC0-t, Median (Min, max)): 18200 ng·h/mL
AUC(0-inf) (400 mg, C1D1, 400 mg BID, n=5, read-out: AUCinf, Geo-mean): 28400 ng·h/mL
AUC(0-inf) (400 mg, C1D1, 400 mg BID, n=5, read-out: AUCinf, Mean (SD)): 30400 ng·h/mL
AUC(0-inf) (400 mg, C1D1, 400 mg BID, n=5, read-out: AUCinf, Median (Min, max)): 31700 ng·h/mL
Cmax (400 mg, C1D1, 400 mg BID, n=5, read-out: Cmax, Geo-mean): 3730 ng/mL
Cmax (400 mg, C1D1, 400 mg BID, n=5, read-out: Cmax, Mean (SD)): 4350 ng/mL
Cmax (400 mg, C1D1, 400 mg BID, n=5, read-out: Cmax, Median (Min, max)): 3850 ng/mL
half-life (400 mg, C1D1, 400 mg BID, n=5, read-out: T1/2, Geo-mean (converted)): 13.5 h
half-life (400 mg, C1D1, 400 mg BID, n=5, read-out: T1/2, Mean (SD) (converted)): 13.8 h
half-life (400 mg, C1D1, 400 mg BID, n=5, read-out: T1/2, Median (Min, max) (converted)): 14.5 h
Tmax (400 mg, C1D1, 400 mg BID, n=5): 1.03 h
AUC(0-t) (400 mg, C1D15, 400 mg BID, n=4, read-out: AUC0-t, Geo-mean): 15700 ng·h/mL
AUC(0-t) (400 mg, C1D15, 400 mg BID, n=4, read-out: AUC0-t, Mean (SD)): 15900 ng·h/mL
AUC(0-t) (400 mg, C1D15, 400 mg BID, n=4, read-out: AUC0-t, Median (Min, max)): 16000 ng·h/mL
Cmax (400 mg, C1D15, 400 mg BID, n=4, read-out: Cmax, Geo-mean): 2070 ng/mL
Cmax (400 mg, C1D15, 400 mg BID, n=4, read-out: Cmax, Mean (SD)): 2100 ng/mL
Cmax (400 mg, C1D15, 400 mg BID, n=4, read-out: Cmax, Median (Min, max)): 2060 ng/mL
Tmax (400 mg, C1D15, 400 mg BID, n=4): 0.842 h
AUC(0-t) (500 mg, C1D1, 500 mg QD, n=10, read-out: AUC0-t, Geo-mean): 48000 ng·h/mL
AUC(0-t) (500 mg, C1D1, 500 mg QD, n=10, read-out: AUC0-t, Mean (SD)): 50700 ng·h/mL
